Data as given in patent US11339178B2, “Inhibitors of microbial beta-glucuronidase enzymes and uses thereof” (The University of North Carolina at Chapel Hill, priority 2016, dated 2022).

biological target: C. perfringens (CpGUS) β-Glucuronidase (Clostridium perfringens, UniProt Q8XP19); experiment: biochemical; conditions: not given
Sequence (Q8XP19 whole entry, looked up): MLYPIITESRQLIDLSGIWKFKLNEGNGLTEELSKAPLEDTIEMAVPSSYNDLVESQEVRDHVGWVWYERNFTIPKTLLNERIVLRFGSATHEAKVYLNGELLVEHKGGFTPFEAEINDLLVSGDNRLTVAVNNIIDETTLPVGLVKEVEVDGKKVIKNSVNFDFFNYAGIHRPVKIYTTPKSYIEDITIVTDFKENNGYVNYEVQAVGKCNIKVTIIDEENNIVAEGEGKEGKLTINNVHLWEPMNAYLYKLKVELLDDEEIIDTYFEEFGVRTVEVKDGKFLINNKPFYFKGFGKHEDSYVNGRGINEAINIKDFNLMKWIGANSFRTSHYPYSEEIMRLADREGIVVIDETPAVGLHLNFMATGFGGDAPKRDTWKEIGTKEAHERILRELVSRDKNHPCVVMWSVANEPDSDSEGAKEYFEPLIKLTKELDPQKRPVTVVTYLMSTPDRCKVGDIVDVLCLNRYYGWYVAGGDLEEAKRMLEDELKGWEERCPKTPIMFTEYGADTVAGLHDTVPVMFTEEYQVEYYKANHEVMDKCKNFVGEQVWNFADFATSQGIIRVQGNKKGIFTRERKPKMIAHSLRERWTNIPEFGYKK

Question: How did the IC50 turn out when `CN1CCN(c2nnnc3c2sc2nc(N4CCOCC4)c4c(c23)CCCC4)CC1` [Compound 2] was run?
Answer: 14300 ± 300 nM

Question: With `NN1CCN(c2nnnc3c2sc2nc(N4CCOCC4)c4c(c23)CCCC4)CC1` [Compound 3] as the molecule, how does the IC50 read?
Answer: 4500 ± 200 nM

Question: How did the IC50 turn out when `C1CCc2c(c(N3CCOCC3)nc3sc4c(NC5CCNCC5)nnnc4c23)C1` [Compound 4] was run?
Answer: 5700 ± 600 nM

Question: With `C1CCc2c(c(N3CCOCC3)nc3sc4c(N5CC6CC5CN6)nnnc4c23)C1` (stereo not drawn) [Compound 5] as the molecule, how does the IC50 read?
Answer: 4500 ± 300 nM

Question: Which IC50 does the source give for `C[C@@H]1CN(c2nnnc3c2sc2nc(N4CCOCC4)c4c(c23)CCCC4)CCN1` [Compound 6] here?
Answer: 3900 ± 100 nM

Question: For `C[C@H]1CN(c2nnnc3c2sc2nc(N4CCOCC4)c4c(c23)CCCC4)CCN1` [Compound 7], which IC50 is on record?
Answer: 4200 ± 300 nM

Question: How did the IC50 turn out when `C1CCc2c(c(N3CCOCC3)nc3sc4c(N5CCCNCC5)nnnc4c23)C1` [Compound 8] was run?
Answer: 13700 ± 600 nM

Question: With `C1CCc2c(c(N3CCNCC3)nc3sc4c(N5CCNCC5)nnnc4c23)C1` [Compound 12] as the molecule, how does the IC50 read?
Answer: 120 ± 20 nM

Question: Which IC50 does the source give for `C1CCN(c2nc3sc4c(N5CCNCC5)nnnc4c3c3c2CCCC3)CC1` [Compound 13] here?
Answer: 350 ± 20 nM

Question: How did the IC50 turn out when `C1CCC(Nc2nc3sc4c(N5CCNCC5)nnnc4c3c3c2CCCC3)CC1` [Compound 14] was run?
Answer: 480 ± 10 nM

Question: Which IC50 does the source give for `CN(C)c1nc2sc3c(N4CCNCC4)nnnc3c2c2c1CCCC2` [Compound 15] here?
Answer: 180 ± 6 nM

Question: `CNc1nc2sc3c(N4CCNCC4)nnnc3c2c2c1CCCC2` [Compound 16] was tested. Which IC50 did it give?
Answer: 180 ± 10 nM

Question: Which IC50 does the source give for `c1ccc(CNc2nc3sc4c(N5CCNCC5)nnnc4c3c3c2CCCC3)cc1` [Compound 17] here?
Answer: 290 ± 10 nM

Question: How did the IC50 turn out when `c1cc2c(nc1N1CCOCC1)sc1c(N3CCNCC3)nnnc12` [Compound 19] was run?
Answer: 220 ± 20 nM

Question: For `c1nc(N2CCNCC2)c2sc3nc(N4CCOCC4)ccc3c2n1` [Compound 20], which IC50 is on record?
Answer: 53 ± 4 nM

Question: Which IC50 does the source give for `CNc1nc(N2CCNCC2)c2sc3nc(N4CCOCC4)ccc3c2n1` [Compound 21] here?
Answer: 100 ± 10 nM

Question: Which IC50 does the source give for `c1ccc(-c2ccc3c(n2)sc2c(N4CCNCC4)nnnc23)cc1` [Compound 22] here?
Answer: 230 ± 30 nM

Question: For `c1ccc(-c2ccc3c(n2)sc2c(N4CCNCC4)ncnc23)cc1` [Compound 23], which IC50 is on record?
Answer: 440 ± 40 nM

Question: How did the IC50 turn out when `CNc1nc(N2CCNCC2)c2sc3nc(-c4ccccc4)ccc3c2n1` [Compound 24] was run?
Answer: 450 ± 10 nM

Question: For `CN(C)c1nc(N2CCNCC2)c2sc3nc(-c4ccccc4)ccc3c2n1` [Compound 25], which IC50 is on record?
Answer: 160 ± 20 nM

Question: Which IC50 does the source give for `OCCNc1nc(N2CCNCC2)c2sc3nc(-c4ccccc4)ccc3c2n1` [Compound 26] here?
Answer: 410 ± 40 nM

Question: Which IC50 does the source give for `CN(C)c1ccc2c(n1)sc1c(N3CCNCC3)nnnc12` [Compound 27] here?
Answer: 220 ± 20 nM

Question: With `CNc1nc(N2CCNCC2)c2sc3nc(N(C)C)ccc3c2n1` [Compound 28] as the molecule, how does the IC50 read?
Answer: 280 ± 50 nM

Question: Which IC50 does the source give for `CNc1ccc2c(n1)sc1c(N3CCNCC3)nc(NC)nc12` [Compound 29] here?
Answer: 660 ± 90 nM

Question: Which IC50 does the source give for `c1cnc2sc3c(N4CCNCC4)ncnc3c2c1` [Compound 30] here?
Answer: 577 ± 9 nM

Question: Which IC50 does the source give for `CNc1nc(N2CCNCC2)c2sc3ncccc3c2n1` [Compound 31] here?
Answer: 900 ± 300 nM

Question: With `C1CCc2c(c(N3CCOCC3)nc3sc4c(N5CCNCC5)nnnc4c23)C1` [Inh9, reference compound] as the molecule, how does the IC50 read?
Answer: 154 nM

biological target: E. coli (EcGUS) β-Glucuronidase (Escherichia coli, UniProt P05804); experiment: In vitro GUS inhibition, PNPG cleavage by purified E. coli GUS; assay type: biochemical; conditions: PNPG substrate, 37° C., 2 hours; NI = no inhibition
Sequence (P05804 whole entry): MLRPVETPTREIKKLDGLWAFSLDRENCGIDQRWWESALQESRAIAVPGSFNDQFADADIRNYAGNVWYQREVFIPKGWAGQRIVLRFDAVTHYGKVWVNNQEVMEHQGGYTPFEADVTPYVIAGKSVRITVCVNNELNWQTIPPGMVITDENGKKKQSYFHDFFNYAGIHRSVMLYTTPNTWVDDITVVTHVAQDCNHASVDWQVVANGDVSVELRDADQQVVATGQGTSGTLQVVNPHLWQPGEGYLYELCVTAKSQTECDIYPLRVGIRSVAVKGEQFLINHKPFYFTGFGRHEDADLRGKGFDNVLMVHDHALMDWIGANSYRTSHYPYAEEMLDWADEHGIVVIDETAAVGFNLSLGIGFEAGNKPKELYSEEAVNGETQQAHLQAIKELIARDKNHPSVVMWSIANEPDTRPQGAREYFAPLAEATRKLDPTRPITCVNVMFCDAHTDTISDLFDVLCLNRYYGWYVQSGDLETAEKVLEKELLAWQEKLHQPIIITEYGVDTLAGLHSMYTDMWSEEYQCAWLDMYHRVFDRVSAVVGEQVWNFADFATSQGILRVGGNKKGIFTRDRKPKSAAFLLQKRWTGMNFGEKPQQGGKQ
Method: To assess GUS inhibition, cleavage of p-nitrophenyl-β-D-glucuronide (PNPG) by purified E. coli GUS in the presence of inhibitor was measured. The reaction was performed in 96-well clear-bottom plates at a volume of 50 μL. Each reaction contained 5 μL of 100 nM E. coli GUS, 5 μL of inhibitor at various concentrations, 10 μL of 250 mM HEPES and 250 mM NaCl assay buffer, and 30 μL of 1.5 mM PNPG. The reaction was initiated by addition of PNPG and incubated at 37° C. for 2 hours. End point absorbance values at 410 nm were measured using a PHERAstar Plus microplate reader. The resulting data were fit with a four-parameter logistic log function in SigmaPlot 13.0 to determine IC50 values. IC50 was defined as the concentration of inhibitor that yields a 50% reduction in product formation at equilibrium.

Question: Which IC50 does the source give for `NN1CCN(c2nnnc3c2sc2nc(N4CCOCC4)c4c(c23)CCCC4)CC1` [Compound 3] here?
Answer: 5000 ± 500 nM

Question: Which IC50 does the source give for `CNc1nc2sc3c(N4CCNCC4)nnnc3c2c2c1CCCC2` [Compound 16] here?
Answer: 70 ± 10 nM

Question: With `c1nc(N2CCNCC2)c2sc3nc(N4CCOCC4)ccc3c2n1` [Compound 20] as the molecule, how does the IC50 read?
Answer: 130 ± 10 nM

Question: Which IC50 does the source give for `CC1CN(c2nnnc3c2sc2nc(N4CCOCC4)c4c(c23)CCCC4)CCN1` (stereo not drawn) [Compound 44] here?
Answer: 5400 ± 600 nM

Question: How did the IC50 turn out when `COc1nc(N2CCNCC2)c2sc3nc(-c4ccccc4)ccc3c2n1` [Compound 45] was run?
Answer: 140 ± 8 nM

Question: With `c1cnc2sc3c(N4CCNCC4)nnnc3c2c1` [Compound 46] as the molecule, how does the IC50 read?
Answer: 1400 ± 40 nM

Question: With `Clc1nc(N2CCNCC2)c2sc3nc(N4CCOCC4)ccc3c2n1` [Compound 47] as the molecule, how does the IC50 read?
Answer: 30 ± 3 nM

Question: `Fc1ccc(CNc2nc3sc4c(N5CCNCC5)nnnc4c3c3c2CCCC3)cc1` [Compound 48] was tested. Which IC50 did it give?
Answer: 208 ± 3 nM

Question: For `CC1(C)CCc2c(N3CCOCC3)nc3sc4c(N5CCNCC5)nnnc4c3c2C1` [Compound 49], which IC50 is on record?
Answer: 620 ± 50 nM

Question: How did the IC50 turn out when `CN(C)c1nc2sc3c(NCCN)nnnc3c2c2c1CCCC2` [Compound 50] was run?
Answer: 12000 ± 2000 nM

Question: How did the IC50 turn out when `Clc1nc(N2CCNCC2)c2sc3nc(N4CCOCC4)c4c(c3c2n1)CCCC4` [Compound 51] was run?
Answer: 900 ± 60 nM

Question: For `C[N+]1(C)CCN(c2nnnc3c2sc2nc(N4CCOCC4)c4c(c23)CCCC4)CC1` [Compound 52], which IC50 is on record?
Answer: 6000 ± 100 nM

biological target: S. agalactiae (SaGUS) β-Glucuronidase (Streptococcus agalactiae serotype V, UniProt Q8E0N2); experiment: biochemical; conditions: not given
Sequence (Q8E0N2 whole entry): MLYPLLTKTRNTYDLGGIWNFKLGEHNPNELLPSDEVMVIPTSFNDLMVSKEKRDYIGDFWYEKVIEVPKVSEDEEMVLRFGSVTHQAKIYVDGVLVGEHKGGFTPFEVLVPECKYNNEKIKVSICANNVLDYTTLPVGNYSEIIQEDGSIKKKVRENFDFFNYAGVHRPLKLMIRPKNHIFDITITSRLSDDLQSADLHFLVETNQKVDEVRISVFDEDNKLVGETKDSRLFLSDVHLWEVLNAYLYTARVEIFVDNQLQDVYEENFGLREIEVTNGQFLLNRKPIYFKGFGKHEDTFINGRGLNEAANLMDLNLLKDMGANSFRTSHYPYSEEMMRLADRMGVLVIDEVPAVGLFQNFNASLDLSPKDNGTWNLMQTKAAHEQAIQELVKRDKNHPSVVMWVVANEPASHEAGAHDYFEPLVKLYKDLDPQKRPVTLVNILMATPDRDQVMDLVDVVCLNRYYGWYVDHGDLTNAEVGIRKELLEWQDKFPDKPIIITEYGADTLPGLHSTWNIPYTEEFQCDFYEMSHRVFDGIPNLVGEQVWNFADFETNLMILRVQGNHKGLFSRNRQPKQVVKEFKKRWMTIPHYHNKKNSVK

Question: For `CN1CCN(c2nnnc3c2sc2nc(N4CCOCC4)c4c(c23)CCCC4)CC1` [Compound 2], which IC50 is on record?
Answer: 22000 ± 7000 nM

Question: With `NN1CCN(c2nnnc3c2sc2nc(N4CCOCC4)c4c(c23)CCCC4)CC1` [Compound 3] as the molecule, how does the IC50 read?
Answer: 6700 ± 400 nM

Question: How did the IC50 turn out when `C1CCc2c(c(N3CCOCC3)nc3sc4c(NC5CCNCC5)nnnc4c23)C1` [Compound 4] was run?
Answer: 70000 ± 20000 nM

Question: For `C1CCc2c(c(N3CCOCC3)nc3sc4c(N5CC6CC5CN6)nnnc4c23)C1` (stereo not drawn) [Compound 5], which IC50 is on record?
Answer: 2700 ± 500 nM

Question: `C[C@@H]1CN(c2nnnc3c2sc2nc(N4CCOCC4)c4c(c23)CCCC4)CCN1` [Compound 6] was tested. Which IC50 did it give?
Answer: 550 ± 70 nM

Question: `C[C@H]1CN(c2nnnc3c2sc2nc(N4CCOCC4)c4c(c23)CCCC4)CCN1` [Compound 7] was tested. Which IC50 did it give?
Answer: 550 ± 60 nM

Question: With `C1CCc2c(c(N3CCOCC3)nc3sc4c(N5CCCNCC5)nnnc4c23)C1` [Compound 8] as the molecule, how does the IC50 read?
Answer: 5000 ± 1000 nM

Question: With `C1CCc2c(c(N3CCNCC3)nc3sc4c(N5CCNCC5)nnnc4c23)C1` [Compound 12] as the molecule, how does the IC50 read?
Answer: 63 ± 6 nM

Question: `C1CCN(c2nc3sc4c(N5CCNCC5)nnnc4c3c3c2CCCC3)CC1` [Compound 13] was tested. Which IC50 did it give?
Answer: 180 ± 20 nM

Question: Which IC50 does the source give for `C1CCC(Nc2nc3sc4c(N5CCNCC5)nnnc4c3c3c2CCCC3)CC1` [Compound 14] here?
Answer: 320 ± 50 nM

Question: With `CN(C)c1nc2sc3c(N4CCNCC4)nnnc3c2c2c1CCCC2` [Compound 15] as the molecule, how does the IC50 read?
Answer: 62 ± 5 nM

Question: `CNc1nc2sc3c(N4CCNCC4)nnnc3c2c2c1CCCC2` [Compound 16] was tested. Which IC50 did it give?
Answer: 39 ± 8 nM

Question: For `c1ccc(CNc2nc3sc4c(N5CCNCC5)nnnc4c3c3c2CCCC3)cc1` [Compound 17], which IC50 is on record?
Answer: 90 ± 20 nM

Question: `c1cc2c(nc1N1CCOCC1)sc1c(N3CCNCC3)nnnc12` [Compound 19] was tested. Which IC50 did it give?
Answer: 640 ± 60 nM

Question: For `c1nc(N2CCNCC2)c2sc3nc(N4CCOCC4)ccc3c2n1` [Compound 20], which IC50 is on record?
Answer: 690 ± 30 nM

Question: Which IC50 does the source give for `CNc1nc(N2CCNCC2)c2sc3nc(N4CCOCC4)ccc3c2n1` [Compound 21] here?
Answer: 340 ± 50 nM

Question: Which IC50 does the source give for `c1ccc(-c2ccc3c(n2)sc2c(N4CCNCC4)nnnc23)cc1` [Compound 22] here?
Answer: 700 ± 100 nM

Question: How did the IC50 turn out when `c1ccc(-c2ccc3c(n2)sc2c(N4CCNCC4)ncnc23)cc1` [Compound 23] was run?
Answer: 550 ± 70 nM

Question: For `CNc1nc(N2CCNCC2)c2sc3nc(-c4ccccc4)ccc3c2n1` [Compound 24], which IC50 is on record?
Answer: 480 ± 30 nM

Question: Which IC50 does the source give for `CN(C)c1nc(N2CCNCC2)c2sc3nc(-c4ccccc4)ccc3c2n1` [Compound 25] here?
Answer: 270 ± 30 nM

Question: With `OCCNc1nc(N2CCNCC2)c2sc3nc(-c4ccccc4)ccc3c2n1` [Compound 26] as the molecule, how does the IC50 read?
Answer: 490 ± 60 nM

Question: `CN(C)c1ccc2c(n1)sc1c(N3CCNCC3)nnnc12` [Compound 27] was tested. Which IC50 did it give?
Answer: 1000 ± 200 nM

Question: Which IC50 does the source give for `CNc1nc(N2CCNCC2)c2sc3nc(N(C)C)ccc3c2n1` [Compound 28] here?
Answer: 500 ± 200 nM

Question: How did the IC50 turn out when `CNc1ccc2c(n1)sc1c(N3CCNCC3)nc(NC)nc12` [Compound 29] was run?
Answer: 550 ± 70 nM

Question: For `c1cnc2sc3c(N4CCNCC4)ncnc3c2c1` [Compound 30], which IC50 is on record?
Answer: 3000 ± 2000 nM

Question: With `CNc1nc(N2CCNCC2)c2sc3ncccc3c2n1` [Compound 31] as the molecule, how does the IC50 read?
Answer: 2000 ± 1500 nM

Question: With `C1CCc2c(c(N3CCOCC3)nc3sc4c(N5CCNCC5)nnnc4c23)C1` [Inh9, reference compound] as the molecule, how does the IC50 read?
Answer: 117 nM
